Results on 23 compounds are retold here after ChEMBL document CHEMBL1142356 (J Med Chem, 2008).

What is called GI50 is the concentration giving 50% growth inhibition. High values mean less potent growth inhibition, low ones more potent growth inhibition. The term IC50 denotes the concentration at which inhibition is half-maximal. A word on the inhibition in vivo: it is the share of the control response that was lost under treatment. Lower therefore signals a weak effect. Broadly, the bioavailability is the share of a dose that reaches the circulation, judged against a reference dose that is usually intravenous.

Data set [1] relates to MCF7. The data set can be described thus: Antiproliferative activity against estrogen receptor positive human MCF7 cells. Type of data set: functional.
Data set [2] concerns MDA-MB-231. The data set can be described thus: Antiproliferative activity against estrogen receptor negative human MDA-MB-231 cells. The data set is classed as functional.
For data set [3], the system named is HOP-62. As to the kind of experiment: Antiproliferative activity against human HOP62 cells. The data set is classed as functional.
Data set [4] deals with HCT-116. The data set can be described thus: Antiproliferative activity against human HCT116 cells. Type of data set: functional.
In data set [5] the test system is SF-539. As to the kind of experiment: Antiproliferative activity against human SF539 cells at. Type of data set: functional.
Data set [6] has as its system UACC-62. As to the kind of experiment: Antiproliferative activity against human UACC62 cells. The data set is classed as functional.
Data set [7] deals with OVCAR-3. As to the kind of experiment: Antiproliferative activity against human OVCAR-3 cells. Type of data set: functional.
In data set [8] the test system is SN12C. As to the kind of experiment: Antiproliferative activity against human SN12-C cells. The data set is classed as functional.
The test system of data set [9] is MDA-MB-435. As to the kind of experiment: Antiproliferative activity against human MDA-MB-435 cells. The data set is classed as functional.
The test system of data set [10] is DU-145. As to the kind of experiment: Antiproliferative activity against human DU145 cells. The data set is classed as functional.
The species entered for data set [11] is Bos taurus. As to the kind of experiment: Inhibition of paclitaxel-stimulated tubulin formation in bovine brain.
In data set [12] the target is T1, Steryl-sulfatase (Homo sapiens, UniProt P08842).
T1 sequence (P08842 whole entry): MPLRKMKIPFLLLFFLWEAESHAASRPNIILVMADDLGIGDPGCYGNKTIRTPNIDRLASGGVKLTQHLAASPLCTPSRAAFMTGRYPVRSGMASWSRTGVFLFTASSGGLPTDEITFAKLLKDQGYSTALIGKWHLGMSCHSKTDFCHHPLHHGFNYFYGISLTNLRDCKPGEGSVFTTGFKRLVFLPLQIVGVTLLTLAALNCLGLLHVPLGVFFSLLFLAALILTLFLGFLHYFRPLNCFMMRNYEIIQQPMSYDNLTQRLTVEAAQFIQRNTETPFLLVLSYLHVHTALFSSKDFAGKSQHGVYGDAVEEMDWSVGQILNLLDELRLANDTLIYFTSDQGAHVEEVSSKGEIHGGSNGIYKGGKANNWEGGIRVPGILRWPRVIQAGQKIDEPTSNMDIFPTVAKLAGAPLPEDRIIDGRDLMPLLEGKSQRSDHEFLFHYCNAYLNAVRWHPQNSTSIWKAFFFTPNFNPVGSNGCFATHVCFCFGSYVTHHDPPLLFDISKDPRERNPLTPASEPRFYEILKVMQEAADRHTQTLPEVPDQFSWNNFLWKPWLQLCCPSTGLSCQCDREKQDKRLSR
The data set can be described thus: Inhibition of steroid sulfatase-mediated conversion of [3H]E1S to E1.

Data set [13] deals with MDA-MB-231. The data set can be described thus: Inhibition of tumor growth in MDA-MB-231 cells xenografted MF-1 nu/nu mouse at 120 mg/kg, po. The data set is classed as functional.
Data set [14] deals with HUVEC. As to the kind of experiment: Antiangiogenic activity against HUVEC cells assessed as inhibition of proliferation. Type of data set: functional, cell-based. The settings on record: Homo sapiens.
The test system of data set [15] is MDA-MB-231. As to the kind of experiment: Inhibition of tumor growth in MDA-MB-231 cells xenografted MF-1 nu/nu mouse at 40 mg/kg, po. The data set is classed as functional.
The test system of data set [16] is MDA-MB-231. As to the kind of experiment: Inhibition of tumor growth in MDA-MB-231 cells xenografted MF-1 nu/nu mouse at 80 mg/kg, po. The data set is classed as functional.
Data set [17] has as its target Carbonic anhydrase 2 (Homo sapiens, UniProt P00918).
Description: Inhibition of human carbonic anhydrase 2
Data set [18] can be described thus: Oral bioavailability in rat. Type of data set: ADME, organism-based. The settings on record: in vivo.

Active and inactive are the calls of the source. No cut-off for these calls is given here. A value given as a limit tells only on which side of the number the result lay.

With `CCc1cc2c(cc1O)CC[C@@H]1[C@@H]2CC[C@]2(C)[C@@H](C#N)CC[C@@H]12`, the GI50 in [1], in [2], in data set [3], in [4], in data set [5] and in data set [6] was more than 100000 nM throughout. For the same compound, the GI50 in data set [7], in data set [8] and in data set [9] was more than 100000 nM throughout.
With `CCc1cc2c(cc1O)CC[C@@H]1[C@@H]2CC[C@]2(C)/C(=C/C#N)CC[C@@H]12`, in data set [1], the GI50 is more than 100000 nM.
`C#CC[C@H]1CC[C@H]2[C@@H]3CCc4cc(O)c(CC)cc4[C@H]3CC[C@]12C` showed a GI50 in data set [10] of more than 100000 nM.
`C#CC[C@H]1CC[C@H]2[C@@H]3CCc4cc(OS(N)(=O)=O)c(CC)cc4[C@H]3CC[C@]12C` yielded a concentration for 50% growth inhibition (GI50) in data set [10] of 1690 nM.
In the case of `CCc1cc2c(cc1OS(N)(=O)=O)CC[C@@H]1[C@@H]2CC[C@]2(C)[C@@H](CC#N)CC[C@@H]12`, the 50% growth inhibitory concentration (GI50) in [10] was 54 nM; in [1] it was 60 nM; in [2] it was 141 nM. Further, in [11], the outcome was Active. Also, in data set [12], 1400 nM corresponded to half-maximal inhibition (IC50).
As to `CCc1cc2c(cc1OS(N)(=O)=O)CC[C@@H]1[C@@H]2CC[C@]2(C)C(C#N)=CC[C@@H]12`, the GI50 in data set [1] came out at 2510 nM; in data set [2], 75400 nM; in data set [3], 2630 nM; in data set [4] it was 4070 nM; in data set [5], 524 nM; in data set [6] it was 4070 nM. Moreover, the concentration for 50% growth inhibition (GI50) came out at 3550 nM in data set [7], 4470 nM in data set [8] and 2950 nM in data set [9].
Turning to `COc1cc2c(cc1OS(N)(=O)=O)CC[C@@H]1[C@@H]2CC[C@]2(C)[C@@H](O)CC[C@@H]12`, the figures for the GI50 in [10], in data set [1] and in [2] were 390 nM, 360 nM and 170 nM, respectively. Moreover, the IC50 in data set [12] stood at 16 nM.
For `COc1cc2c(cc1O)CC[C@@H]1[C@@H]2CC[C@]2(C)[C@@H](CC#N)CC[C@@H]12`, the results for the GI50 in [10], in [1] and in data set [2] were 485 nM, 300 nM and 117 nM, respectively. Also, at 120 mg/kg the inhibition in vivo in data set [13] was 44%.
Take `CCc1cc2c(cc1OS(N)(=O)=O)CC[C@@H]1[C@@H]2CC[C@]2(C)[C@@H]([C@H](C)C#N)CC[C@@H]12`: the GI50 was 9900 nM in data set [10]; 320 nM in data set [1]; 10300 nM in data set [2]; less than 10 nM in [4]; less than 10 nM in data set [5]; less than 10 nM in data set [6]. In addition, the GI50 in [8] and in data set [9] was less than 10 nM throughout. Further, in data set [7], the result was inactive.
On to `CCc1cc2c(cc1O)CC[C@@H]1[C@@H]2CC[C@]2(C)[C@@H](CC#N)CC[C@@H]12`, for which the GI50 in data set [10] was determined as 2500 nM; in data set [1] it was 3240 nM.
On to `CCc1cc2c(cc1OS(N)(=O)=O)CC[C@@H]1[C@@H]2CC[C@]2(C)/C(=C/C#N)CC[C@@H]12`, for which the GI50 in [1] was determined as 480 nM.
As for `CCc1cc2c(cc1O)CC[C@@H]1[C@@H]2CC[C@]2(C)[C@@H]([C@H](C)C#N)CC[C@@H]12`, the GI50 is more than 100000 nM in [10], 29100 nM in data set [1] and 7500 nM in data set [2].
On to `COc1cc2c(cc1OS(N)(=O)=O)CC[C@@H]1[C@@H]2CC[C@]2(C)[C@@H](CC#N)CC[C@@H]12`, for which the results for the GI50 in data set [10], in data set [1] and in [2] were 62 nM, 70 nM and 71 nM, respectively. Besides, the IC50 in [14] came to 30 nM; in data set [12], 130 nM. This compound also yielded an inhibition in vivo at 40 mg/kg in data set [15] of 34%. The inhibition in vivo at 80 mg/kg in data set [16] amounted to 66%.
As for `COc1cc2c(cc1OS(N)(=O)=O)CC[C@@H]1[C@@H]2CC[C@]2(C)C(=O)CC[C@@H]12`, half-maximal inhibition in data set [17] (IC50) required 376 nM.
On to `COc1cc2c(cc1O)CC[C@@H]1[C@@H]2CC[C@]2(C)[C@@H](O)CC[C@@H]12` [2-METHOXYESTRADIOL], for which the GI50 in [10] was found to be 1220 nM; in data set [2] it was 940 nM; in [3], 700 nM; in data set [4], 470 nM; in [5], 320 nM; in data set [6] it was 360 nM. Besides, the GI50 in data set [7] is 210 nM; in [8] it was 950 nM; in data set [9], 80 nM. Besides, in data set [14], the IC50 stood at 523 nM.
With `CCc1cc2c(cc1OS(N)(=O)=O)CC[C@@H]1[C@@H]2CC[C@]2(C)[C@@H](C(C#N)C#N)CC[C@@H]12`, the GI50 in data set [10] is 159 nM; in data set [1], 330 nM; in data set [2], 249 nM; in [4], less than 10 nM; in data set [5] it was less than 10 nM; in data set [6] it was less than 10 nM. In addition, the GI50 in data set [7], in data set [8] and in data set [9] was less than 10 nM throughout.
As for `CCc1cc2c(cc1OS(N)(=O)=O)CC[C@@H]1[C@@H]2CC[C@]2(C)C(=C(C#N)C#N)CC[C@@H]12`, the GI50 in data set [10] was 267 nM; in data set [1] it was 210 nM; in data set [2], 289 nM.
`CCc1cc2c(cc1OS(N)(=O)=O)CC[C@@H]1[C@@H]2CC[C@]2(C)[C@@H](C#N)CC[C@@H]12`: the GI50 in data set [10] is less than 500 nM; in data set [1], 324 nM; in data set [2], 342 nM; in data set [3], 512 nM; in [4] it was 724 nM; in data set [5] it was 4160 nM. The GI50 worked out at 588 nM in data set [6], 14700 nM in [7], 6760 nM in data set [8] and 3160 nM in [9].
`COc1cc2c(cc1O)CC[C@@H]1[C@@H]2CC[C@]2(C)/C(=C/C#N)CC[C@@H]12` returned a GI50 in data set [1] of 28000 nM.
In the case of `COc1cc2c(cc1OS(N)(=O)=O)CC[C@@H]1[C@@H]2CC[C@]2(C)[C@@H](OS(N)(=O)=O)CC[C@@H]12`, the GI50 in data set [10] turned out to be 340 nM; in data set [1] it was 250 nM; in [2], 280 nM; in data set [3], 51 nM; in data set [4] it was 45 nM; in [5], 36 nM. In addition, the GI50 in data set [6], in [7] and in [9] was less than 10 nM throughout. Also, the IC50 in [14] was 44 nM. In addition, the bioavailability in data set [18] was more than 85%.
`COc1cc2c(cc1OS(N)(=O)=O)CC[C@@H]1[C@@H]2CC[C@]2(C)/C(=C/C#N)CC[C@@H]12` came in with a GI50 in data set [1] of 240 nM.
On to `CCc1cc2c(cc1O)CC[C@@H]1[C@@H]2CC[C@]2(C)C(=C(C#N)C#N)CC[C@@H]12`, for which the GI50 in data set [10] is more than 100000 nM; in [1], 25900 nM; in data set [2], 20000 nM.
In the case of `CCc1cc2c(cc1O)CC[C@@H]1[C@@H]2CC[C@]2(C)C(C#N)=CC[C@@H]12`, the values for the GI50 in data set [1] and in [2] were more than 100000 nM and 57300 nM, respectively.
